Measurements published in patent publication EP1388586A2, “Identification of broadly reactive DR restricted epitopes” (priority 1998, dated 1999).
Ends that are not written are not given here.

Tests used:
DRB1*0301 (DR3w17) = target: T1, DRB1*0301 (DR3w17) (Homo sapiens, UniProt P01903+P01911, A100K/A102G/A103R/A169T/F55Y/I96L/K41T/L162R/M171V/P40S/Q125H/Q178H/Q39Y/R42S/S66N/T106N/T262R/W38E/Y61H); assay: Class II peptide-binding assay, DR3 (pH 4.5); conditions: Table VIII, page 2; pH 4.5; read-out: In IC50 Format DR3;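 further: unlabeled peptide competing with a radiolabeled probe peptide for binding to affinity-purified HLA-DR3, IC50 regarded as an approximation of Kd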
T1 construct: used as sources of human HLA class II molecules; endogenous in cells; host or cells: MAT (EBV-transformed homozygous B cell line)
T1 sequence (P01903 26-254, other chains not shown): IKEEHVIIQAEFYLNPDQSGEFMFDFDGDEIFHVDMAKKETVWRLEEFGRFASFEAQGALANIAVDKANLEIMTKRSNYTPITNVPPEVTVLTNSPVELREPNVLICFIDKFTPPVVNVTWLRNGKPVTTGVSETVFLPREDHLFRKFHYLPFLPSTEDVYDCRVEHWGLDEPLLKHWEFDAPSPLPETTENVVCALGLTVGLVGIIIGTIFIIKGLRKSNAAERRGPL

DRB1*0101 (DR1) = target: T2, DRB1*0101 (DR1) (Homo sapiens, UniProt P01903+P01911, A100R/D57E/F55L/F60I/F76Y/I96L/L162R/M171V/P40L/Q125E/R42F/V115G/Y59C); assay: Class II peptide-binding assay, DR1; conditions: read-out: DR1 nM (In IC50 Format); purified HLA DR1;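 further: competition assay: unlabeled test peptides inhibit binding of a radiolabeled probe peptide to purified DR, with half-maximal inhibition taken as an approximate dissociation constant Kd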
T2 construct: used as sources of human HLA class II molecules; endogenous in cells; host or cells: LG2 (EBV-transformed homozygous B cell line)

DRB5*0101 (DR2w2a) = target: T3, DRB5*0101 (DR2w2a) (Homo sapiens, UniProt P01903+Q30154); assay: Class II peptide-binding assay, DR2w2a (DR2w2B2); conditions: read-out: DR2w2B2 nM (In IC50 Format); purified HLA DR2w2β2;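 further: competitive binding assay: unlabeled peptide inhibiting binding of a radiolabeled probe peptide to purified DR molecules at pH 7.0, IC50 approximating Kd, lower means stronger binding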
T3 construct: used as sources of human HLA class II molecules; endogenous in cells; host or cells: GM3107 (EBV-transformed homozygous B cell line)

DRB1*0401 (DR4w4) = target: T4, DRB1*0401 (DR4w4) (Homo sapiens, UniProt P01903+P01911, A100K/A169T/F76Y/I96L/K127E/L162R/M171V/N62H/P40V/Q125Y/R42H/S133A/S149N/S66Y/V115G/V209L/W38E); assay: Class II peptide-binding assay, DR4w4; conditions: read-out: DR4w4 nM (In IC50 Format); purified HLA DR4w4;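 further: unlabeled test peptides compete with a radiolabeled probe peptide for binding to affinity-purified HLA-DR, with DR amount titrated to capture a small fraction of label, IC50 approximating Kd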
T4 construct: used as sources of human HLA class II molecules; endogenous in cells; host or cells: PREISS (EBV-transformed homozygous B cell line)

DRB10404 (DR4w14) = target: T5, DRB10404 (DR4w14) (Homo sapiens, UniProt P01903+P01911, A100R/A169T/F76Y/I96L/K127E/L162R/M171V/N62H/P40V/Q125Y/R42H/S133A/S149N/S66Y/V209L/W38E); assay: Class II peptide-binding assay, DR4w14; conditions: read-out: DR4w14 nM (In IC50 Format); purified HLA DR4w14;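 further: unlabeled peptides compete with a radiolabeled probe for binding to affinity-purified HLA-DR, neutral pH, class II amount titrated to bind a small fraction of label, IC50 approximates Kd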
T5 construct: used as sources of human HLA class II molecules; endogenous in cells; host or cells: BIN40 (EBV-transformed homozygous B cell line)
Method: Class II peptide-binding assays. […] These assays were chosen as to be representative of the most common DR alleles.
In appropriate stoichiometric conditions, the IC50 of an unlabeled test peptide to the purified DR is a reasonable approximation of the affinity of interaction (Kd). Peptides were tested in two to four completely independent experiments. […] Final detergent concentration in the incubation mixture was 0.05% Nonidet P-40. Assays were performed at pH 7.0 with the exception of DR3, which was performed at pH 4.5, and DRw53, which was performed at pH 5.0.
All subsequent inhibition and direct binding assays were the performed using these class II concentrations.

DRB1*1101 (DR5w11) = target: T6, DRB1*1101 (DR5w11) (Homo sapiens, UniProt P01903+P01911, A100R/A169T/A87E/I96F/K41T/L162R/M171V/P40S/Q125H/Q178H/Q39Y/Q99D/R42S/S66Y/T262R/V115G/W38E); assay: Class II peptide-binding assay, DR5w11; conditions: read-out: DR5w11 nM (In IC50 Format); purified HLA DR5w11;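 further: competition by unlabeled test peptide against iodinated probe peptide binding to affinity-purified HLA-DR, class II amount titrated beforehand, half-maximal inhibitory concentration read as approximate Kd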
T6 construct: used as sources of human HLA class II molecules; endogenous in cells; host or cells: SWEIG (EBV-transformed homozygous B cell line)
T6 sequence (P01903 26-254, other chains not shown): as above

DRB1*0701 (DR7) = DRB1*0701 (DR7) (Homo sapiens, UniProt P01903+P01911, A100R/A102G/A103Q/D57E/D86V/E43K/F76Y/K127E/L162R/M171V/P40G/Q125H/Q99D/R33Q/R42Y/R54Q/S133A/S66F/T210M/V115G/Y107V/Y59L/Y89S); assay: Class II peptide-binding assay, DR7; conditions: read-out: DR7 nM (In IC50 Format); purified HLA DR7;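 further: unlabeled peptides compete with an iodinated probe peptide for binding to affinity-purified HLA-DR at neutral pH, DR amount titered to bind a small tracer fraction, IC50 approximating Kd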

Molecule	IC50 (DRB1*0301 (DR3w17)) [nM]	IC50 (DRB1*0101 (DR1)) [nM]	IC50 (DRB5*0101 (DR2w2a)) [nM]	IC50 (DRB1*0401 (DR4w4)) [nM]	IC50 (DRB10404 (DR4w14)) [nM]	IC50 (DRB1*1101 (DR5w11)) [nM]	IC50 (DRB1*0701 (DR7)) [µM]
CC[C@H](C)[C@H](NC(=O)[C@H](CC(N)=O)NC(=O)[C@@H](N)CCC(N)=O)C(=O)N[C@H](C(=O)N[C@@H](CCC(N)=O)C(=O)N[C@@H](CC(N)=O)C(=O)N[C@@H](CC(=O)O)C(=O)N[C@H](C(=O)NCC(=O)N[C@@H](Cc1ccccc1)C(=O)N[C@@H](Cc1ccc(O)cc1)C(=O)N[C@H](C(=O)N[C@@H](CC(C)C)C(=O)N[C@@H](Cc1c[nH]cn1)C(=O)N[C@H](C(=O)O)C(C)C)[C@@H](C)O)[C@@H](C)O)[C@@H](C)CC [Peptide 39.0313]	938	–	–	–	–	–	–
CC[C@H](C)[C@H](NC(=O)[C@@H](NC(=O)[C@H](Cc1c[nH]cn1)NC(=O)[C@@H](N)CC(C)C)C(C)C)C(=O)N[C@@H](CCCCN)C(=O)N[C@@H](CO)C(=O)N[C@@H](CC(=O)O)C(=O)N[C@@H](CC(C)C)C(=O)N[C@H](C(=O)N[C@@H](CC(N)=O)C(=O)N[C@@H](CCC(=O)O)C(=O)N[C@@H](CCC(=O)O)C(=O)N[C@@H](C)C(=O)N[C@H](C(=O)NCC(=O)O)[C@@H](C)O)C(C)C [Peptide 39.0314]	2310	–	–	–	–	–	–
YAAFQSQTTLKAKT-NH2 [Peptide 717.30]	–	8.7	105	7.6	7.5	22.2	4.17
YAEFQSQTTLKAKT-NH2 [Peptide 717.41]	–	23.8	667	32.1	65.8	38.5	25
YAKFQSQTTLKAKT-NH2 [Peptide 717.40]	–	8.8	167	4.9	14.3	8.7	3.57
YARAQSQTTLKAKT-NH2 [Peptide 717.29]	–	556	1820	30	41.7	20000	3.57
YARFASQTTLKAKT-NH2 [Peptide 717.56]	–	3.1	118	5.2	12.8	21.1	6.25
YARFASQTTLKAKT-NH2 [Peptide 782.02]	–	3.6	191	2.5	14.7	25.7	6.25
YARFNSQTTLKAKT-NH2 [Peptide 717.44]	–	5	80	4.2	7.4	32.8	5
YARFQAQTTLKAKT-NH2 [Peptide 717.55]	–	2.4	90.9	4.5	4.3	11.1	5
YARFQSATTLKAKT-NH2 [Peptide 717.54]	–	4.6	60.6	4.1	7.2	9.5	0.676
YARFQSLTTLKAKT-NH2 [Peptide 717.15]	–	1.2	23.8	2	9.4	5.3	0.961
YARFQSNTTLKAKT-NH2 [Peptide 717.47]	–	41.7	444	3.8	14.7	18.2	4.17
YARFQSQATLKAKT-NH2 [Peptide 717.53]	–	2	167	9.2	10.6	20	3.57
YARFQSQETLKAKT-NH2 [Peptide 717.17]	–	6	870	5.2	25	18.2	1.92
YARFQSQSTLKAKT-NH2 [Peptide 717.16]	–	6	105	1.8	8.1	4	3.57
YARFQSQTALKAKT-NH2 [Peptide 717.52]	–	2.2	15.4	4.6	31.3	33.3	1.14

Molecule	IC50 (DRB1*0301 (DR3w17)) [nM]	IC50 (DRB1*0101 (DR1)) [nM]	IC50 (DRB5*0101 (DR2w2a)) [nM]	IC50 (DRB1*0401 (DR4w4)) [nM]	IC50 (DRB10404 (DR4w14)) [nM]	IC50 (DRB1*1101 (DR5w11)) [nM]	IC50 (DRB1*0701 (DR7)) [µM]
YARFQSQTSLKAKT-NH2 [Peptide 717.31]	–	4.5	143	5.1	10.6	20	0.676
YARFQSQTTAKAKT-NH2 [Peptide 717.51]	–	3.3	66.7	6.1	13.2	38.8	6.25
YARFQSQTTIKAKT-NH2 [Peptide 717.19]	–	5.7	143	3.2	19.2	30.3	2.08
YARFQSQTTKKAKT-NH2 [Peptide 717.20]	–	11.1	87	12.5	200	339	5
YARFQSQTTLAAKT-NH2 [Peptide 717.50]	–	4.2	274	3.1	4.3	20.8	4.17
YARFQSQTTLKAAT-NH2 [Peptide 717.49]	–	2.1	118	6.6	7.1	6.3	4.17
YARFQSQTTLKAKA-NH2 [Peptide 717.48]	–	1.8	40.8	2.6	5.3	5.9	6.25
YARFQSQTTLKAKE-NH2 [Peptide 717.28]	–	4.5	95.2	26.5	12.8	16.7	5
YARFQSQTTLKAKT [Peptide 717.67]	–	3.6	167	6	11.1	7.4	1.39
YARFQSQTTLKAKT-NH2 [Peptide 717.02]	–	2.9	125	3.7	18.5	18.9	2.78
YARFQSQTTLKART-NH2 [Peptide 717.25]	–	4.5	64.5	1.2	10.6	13.3	4.17
YARFQSQTTLKSKT-NH2 [Peptide 717.23]	–	294	215	2.8	21.7	25.3	8.33
YARFQSQTVLKAKT-NH2 [Peptide 717.32]	–	7.6	400	5.7	10.4	14.3	0.151
YARFQSQTYLKAKT-NH2 [Peptide 717.33]	–	1670	256	187	8330	1540	0.641
YERFQSQTTLKAKT-NH2 [Peptide 717.39]	–	18.5	800	10.7	16.7	47.6	8.33
YIAFLKQATAKLAT [Peptide 723.01]	–	4.9	69	16.7	746	30.5	0.0156
YSRFQSQTTLKAKT-NH2 [Peptide 717.38]	–	6.1	274	10	15.2	16.7	6.25
